Measurements from patent US10681909B2, “Herbicidal triazoles” (FMC Corporation, priority 2014, dated 2020).

Assays:
[1] = test system: kochia; test: Test C postemergence; assay type: in vivo, Kochia scoparia
How it was run: (§1)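 Surfactant-containing, non-phytotoxic solvent formulations of each compound were applied either preemergence to seeds in a loam soil–sand blend or postemergence to plants 2 to 18 cm tall (1- to 4-leaf stage). Postemergence plants were grown in peat moss–vermiculite medium.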

[2] = test system: crabgrass, large; test: Test C postemergence; assay type: in vivo, Digitaria sanguinalis
How it was run: as §1

[3] = test system: barnyardgrass; test: Test A preemergence; assay type: in vivo, Echinochloa crus-galli; details: 0 to 100 scale (0 no effect, 100 complete control)
How it was run: (§2)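 Pre- and postemergence spray tests in a loam soil–sand mixture: seeded soil received a directed spray, while established seedlings 2–10 cm high at the one- to two-leaf stage were treated over the top. Compounds were carried in non-phytotoxic solvent with surfactant.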

[4] = test system: wheat; test: Test A postemergence; assay type: in vivo, Triticum aestivum; details: 0 to 100 scale (0 no effect, 100 complete control), approx. 10 d
How it was run: as §2

[5] = test system: morningglory; test: Test C postemergence; assay type: in vivo, Ipomoea coccinea
How it was run: as §1

[6] = test system: barnyardgrass; test: Test C postemergence; assay type: in vivo, Echinochloa crus-galli
How it was run: as §1

[7] = test system: velvetleaf; test: Test C postemergence; assay type: in vivo, Abutilon theophrasti
How it was run: as §1

[8] = test system: foxtail, giant; test: Test A preemergence; assay type: in vivo, Setaria faberii; details: 0 to 100 scale (0 no effect, 100 complete control)
How it was run: as §2

[9] = test system: soybean; test: Test C postemergence; assay type: in vivo, Glycine max
How it was run: as §1

[10] = test system: waterhemp; test: Test C postemergence; assay type: in vivo, Amaranthus rudis
How it was run: as §1

[11] = test system: blackgrass; test: Test C postemergence; assay type: in vivo, Alopecurus myosuroides
How it was run: as §1

[12] = test system: chamomile; test: Test D postemergence; assay type: in vivo, Matricaria inodora; details: scale 0 to 100
From the text: Seeds of plant species selected from bluegrass (annual bluegrass, Poa annua), blackgrass (Alopecurus myosuroides), canarygrass (Phalaris minor), chickweed (common chickweed, Stellaria media), galium (catchweed bedstraw, Galium aparine), bromegrass, down (downy bromegrass, Bromus tectorum), Russian thistle (Salsola kali), field poppy (Papaver rhoeas), field violet (Viola arvensis), foxtail, green (green foxtail, Setaria viridis), deadnettle (henbit deadnettle, Lamium amplexicaule), ryegrass, Ital. (Italian ryegrass, Lolium multiflorum), kochia (Kochia scoparia), lambsquarters (Chenopodium album), oilseed rape (Brassica napus), pigweed (Amaranthus retroflexus), chamomile (scentless chamomile, Matricaria inodora), speedwell (bird's-eye speedwell, Veronica persica), barley, spring (spring barley, Hordeum vulgare), wheat, spring (spring wheat, Triticum aestivum), buckwheat, wild (wild buckwheat, Polygonum convolvulus), wild mustard (Sinapis arvensis), oat, wild (wild oat, Avena fatua), radish, wild (wild radish, Raphanus raphanistrum), […]), barley, winter (winter barley, Hordeum vulgare), and wheat, winter (winter wheat, Triticum aestivum) were planted into a silt loam soil and treated preemergence with test chemicals formulated in a non-phytotoxic solvent mixture which included a surfactant. At the same time, these species were planted in pots containing Sunshine Redi-Earth® planting medium comprising spaghnum peat moss, vermiculite, starter nutrients and dolomitic limestone and treated with postemergence applications of the test chemicals formulated in the same manner. Plants ranged in height from 2 to 18 cm (1- to 4-leaf stage). Treated plants and controls were maintained in a controlled growth environment for 14 to 21 d after which time all species were compared to controls and visually evaluated. […] A dash (-) response means no test result.

[13] = test system: pigweed; test: Test A preemergence; assay type: in vivo, Amaranthus retroflexus; details: 0 to 100 scale (0 no effect, 100 complete control)
How it was run: as §2

COc1nc(-c2ccc(Cl)cc2)nn1Cc1ccnc(C(F)(F)F)c1 [Compound 28]
Plant response rating (scale of 0 to 100 where 0 is no effect and 100 is complete control) ([1]; 31 g ai/ha): 95
Plant response rating (scale of 0 to 100 where 0 is no effect and 100 is complete control) ([1]; 62 g ai/ha): 100
Plant response rating (scale of 0 to 100 where 0 is no effect and 100 is complete control) ([1]; 125 g ai/ha): 100
Plant response rating (scale of 0 to 100 where 0 is no effect and 100 is complete control) ([1]; 250 g ai/ha): 100
Plant response rating (scale of 0 to 100 where 0 is no effect and 100 is complete control) ([2]; 31 g ai/ha): 10
Plant response rating (scale of 0 to 100 where 0 is no effect and 100 is complete control) ([2]; 62 g ai/ha): 10
Plant response rating (scale of 0 to 100 where 0 is no effect and 100 is complete control) ([2]; 125 g ai/ha): 10
Plant response rating (scale of 0 to 100 where 0 is no effect and 100 is complete control) ([2]; 250 g ai/ha): 30
Plant response rating, Barnyardgrass ([3]; 125 g ai/ha): 30
Plant response rating, Barnyardgrass ([3]; 500 g ai/ha, approx. 10 d): 90
Plant response rating, Wheat ([4]; 125 g ai/ha): 0
Plant response rating, Wheat ([4]; 500 g ai/ha): 10
Plant response rating (scale of 0 to 100 where 0 is no effect and 100 is complete control) ([5]; 31 g ai/ha): 70
Plant response rating (scale of 0 to 100 where 0 is no effect and 100 is complete control) ([5]; 62 g ai/ha): 60
Plant response rating (scale of 0 to 100 where 0 is no effect and 100 is complete control) ([5]; 125 g ai/ha): 65
Plant response rating (scale of 0 to 100 where 0 is no effect and 100 is complete control) ([5]; 250 g ai/ha): 100
Plant response rating (scale of 0 to 100 where 0 is no effect and 100 is complete control) ([6]; 31 g ai/ha): 15
Plant response rating (scale of 0 to 100 where 0 is no effect and 100 is complete control) ([6]; 62 g ai/ha): 15
Plant response rating (scale of 0 to 100 where 0 is no effect and 100 is complete control) ([6]; 125 g ai/ha): 15
Plant response rating (scale of 0 to 100 where 0 is no effect and 100 is complete control) ([6]; 250 g ai/ha): 25
Plant response rating (scale of 0 to 100 where 0 is no effect and 100 is complete control) ([7]; 31 g ai/ha): 60
Plant response rating (scale of 0 to 100 where 0 is no effect and 100 is complete control) ([7]; 62 g ai/ha): 60
Plant response rating (scale of 0 to 100 where 0 is no effect and 100 is complete control) ([7]; 125 g ai/ha): 65
Plant response rating (scale of 0 to 100 where 0 is no effect and 100 is complete control) ([7]; 250 g ai/ha): 80
Plant response rating, Foxtail, Giant ([8]; 125 g ai/ha): 100
Plant response rating, Foxtail, Giant ([8]; 500 g ai/ha, approx. 10 d): 100
Plant response rating (scale of 0 to 100 where 0 is no effect and 100 is complete control) ([9]; 31 g ai/ha): 45
Plant response rating (scale of 0 to 100 where 0 is no effect and 100 is complete control) ([9]; 62 g ai/ha): 70
Plant response rating (scale of 0 to 100 where 0 is no effect and 100 is complete control) ([9]; 125 g ai/ha): 55
Plant response rating (scale of 0 to 100 where 0 is no effect and 100 is complete control) ([9]; 250 g ai/ha): 60
Plant response rating (scale of 0 to 100 where 0 is no effect and 100 is complete control) ([10]; 31 g ai/ha): 98
Plant response rating (scale of 0 to 100 where 0 is no effect and 100 is complete control) ([10]; 62 g ai/ha): 95
Plant response rating (scale of 0 to 100 where 0 is no effect and 100 is complete control) ([10]; 125 g ai/ha): 95
Plant response rating (scale of 0 to 100 where 0 is no effect and 100 is complete control) ([10]; 250 g ai/ha): 98
Plant response rating (scale of 0 to 100 where 0 is no effect and 100 is complete control) ([11]; 31 g ai/ha): 10
Plant response rating (scale of 0 to 100 where 0 is no effect and 100 is complete control) ([11]; 62 g ai/ha): 15
Plant response rating (scale of 0 to 100 where 0 is no effect and 100 is complete control) ([11]; 125 g ai/ha): 15
Plant response rating (scale of 0 to 100 where 0 is no effect and 100 is complete control) ([11]; 250 g ai/ha): 25
Plant response rating: Chamomile ([12]; 16 g ai/ha): 10
Plant response rating: Chamomile ([12]; 31 g ai/ha): 15
Plant response rating: Chamomile ([12]; 62 g ai/ha): 15
Plant response rating: Chamomile ([12]; 125 g ai/ha): 25
Plant response rating, Pigweed ([13]; 125 g ai/ha): 100
Plant response rating, Pigweed ([13]; 500 g ai/ha, approx. 10 d): 100
